The test has as its system Rat Chronic Constriction Injury Model. The following applies: FIG. 4; days 8-64.

Method: A 2-month chronic constriction injury (CCI) model of neuropathic pain was used to evaluate different formulations of clonidine encapsulated in bioerodible polymers compared to clonidine given subcutaneously (SC). Different formulations as provided in Table 5 below were evaluated for reducing pain-associated behaviors: Thermal paw withdrawal latency was evaluated at baseline, 7, 14, 21, 28, 35, 42, 49, 56 and 64 days post-operatively, while mechanical threshold was evaluated at 8, 15, 22, 29, 36, 43, 50, 57 and 64 days post-operatively.
The inventors evaluated the efficacy of a five month Clonidine/Polymer Drug Depot in the Rat Chronic Constriction Injury Model. The animal model was the Bennett Model (Wistar rat). The purpose: To determine whether a five month polymer clonidine-eluting depot can improve pain associated behavioral responses in a rat model of neuropathic pain.
Experimental Design: Four loose chromic gut ligatures, 1 mm apart, were tied around the common sciatic nerve at mid-thigh. Each animal received treatment of a test or control article according to the dosing described in Table 5.
The inventors have conducted the present study for a period of 64 days and have employed the following two tests: (1) the Hargreaves test; and (2) the von Frey test. […]

For the compound `Clc1cccc(Cl)c1N=C1NCCN1` [clonidine, 2,6-dichloro-N-2-imidazolidinyldenebenzenamine], the “pain behavioral response, mechanical threshold (mechanical allodynia), compared to unloaded polymer depots” value is given as “reduced the behavioral response”.

The values above are taken from patent US9387197B2, “Methods for treating conditions such as dystonia and post-stroke spasticity with clonidine” (Warsaw Orthopedic, Inc., priority 2008, dated 2016).
